# Measured values as given in patent US10801077B2, “Influenza A virus variants” (Vertex Pharmaceuticals Incorporated, priority 2014, dated 2020).
# Key:
# PR8-PB2-S324N = type: cell-based, influenza A virus
# PR8-PB2-K376R = type: cell-based, influenza A virus
# PR8-PB2-H357Q = type: cell-based, influenza A virus
# [1] = test system: A/Puerto Rico/8/34, A/California/07/2009, A/Wisconsin/67/2005 influenza virus variants; type: cell-based
# PR8-Wild Type = assay: microbe, parasite or virus in culture; type: cell-based, influenza A virus
# PR8-PB2-F325V = type: cell-based, influenza A virus
# PR8-PB2-S324R = type: cell-based, influenza A virus
# PR8-PB2-F323L = type: cell-based, influenza A virus
# PR8-PB2-M431I = type: cell-based, influenza A virus
# PR8-PB2-K376Q = type: cell-based, influenza A virus
structure (smiles),measurement,setting,value
CC(C)(C)[C@@H](CC(=O)O)Nc1nc(-c2c[nH]c3ncc(F)cc23)ncc1F [Compound 1],Sensitivity to Compound 1 Fold EC50 Shift,PR8-PB2-S324N,31 fold
same,Sensitivity to Compound 1 Fold EC50 Shift,PR8-PB2-K376R,231 fold
same,Sensitivity to Compound 1 Fold EC50 Shift,PR8-PB2-H357Q,15 fold
same,reduction in sensitivity to Compound 1,[1],> 10 fold
same,shift in Compound 1 EC50,[1],10- to 1720 fold
same,shifts in sensitivity to Compound 1,[1],greater than 10 fold
same,Sensitivity to Compound 1 Fold EC50 Shift,PR8-Wild Type,1.0 fold
same,EC50,"PR8-Wild Type; Influenza A virus, PR8, MDCK, read-out: Sensitivity to Compound 1 EC50 (SD)",1.3 nM
same,Sensitivity to Compound 1 Fold EC50 Shift,PR8-PB2-F325V,3.5 fold
same,Sensitivity to Compound 1 Fold EC50 Shift,PR8-PB2-S324R,33 fold
same,Sensitivity to Compound 1 Fold EC50 Shift,PR8-PB2-F323L,8.5 fold
same,Sensitivity to Compound 1 Fold EC50 Shift,PR8-PB2-M431I,131 fold
same,Sensitivity to Compound 1 Fold EC50 Shift,PR8-PB2-K376Q,408 fold
